Each structure is given as a SMILES string. ≈ marks a conversion by molar mass, not a printed value.

These results are taken from EPA's ToxValDB 9.5 (doi:10.2903/j.efsa.2008.150r).

In one data set the test system is Rattus norvegicus. The settings on record: for LD50: acute, mortality.
The next data set deals with Anas platyrhynchos. The conditions noted are these: for LD50: oral, mortality; for NOEL: reproductive.
The subject of the next data set is Aphidius rhopalosiphi. The data set can be described thus: LR50; higher = less toxic. The conditions noted are these: not reported; mortality.
Another data set has as its system Typhlodromus pyri. Nature of the data set: LR50; higher = less toxic. The conditions noted are these: not reported; mortality.
A further data set has as its system Apis mellifera. The conditions noted are these: acute; duration: 48 hours; oral; unspecified; mortality.
The next data set concerns Tagia sp. The conditions noted are these: acute; duration: 14 days; mortality.

In the case of `CS(=O)(=O)c1ccc(C(=O)O)c(Cl)c1` [Benzoic acid, 2-chloro-4-(methylsulfonyl)-], the LD50 was above 2000 mg/kg-day in the data set with Rattus norvegicus (oral) and above 2010 mg/kg-day in the data set with Anas platyrhynchos (short-term, feed). Besides, the NOEL in the data set on Rattus norvegicus (reproduction developmental, M, reproduction) was 969 mg/kg-day.
Broadly, the LOAEL is the lowest tested level that showed an adverse finding. As usually defined, the NOAEL is the highest tested level that showed no adverse finding. Consider `CS(=O)(=O)c1ccc(C(=O)C2C(=O)CCCC2=O)c(Cl)c1` [Sulcotrione], for which the LR50 in the data set with Aphidius rhopalosiphi and with Typhlodromus pyri was above 450 g/ha in each case. For the same compound, the LC50 in the data set with Oncorhynchus mykiss (acute, duration: 96 hours, mortality) was 227 µg/mL (≈ 690 µM); in the data set with Tagia sp., above 1000 mg/kg. Also, the NOEC in the data set on Oncorhynchus mykiss (chronic/long-term, duration: 28 days, growth) came to 3.2 mg/L. In addition, the LD50 was 50 µg/piece with Apis mellifera; above 5000 mg/kg-day in the data set on Rattus norvegicus; above 1350 mg/kg-day in the data set on Anas platyrhynchos (acute, unspecified); above 1260 mg/kg-day in the data set with Anas platyrhynchos (short-term, feed). The NOEL is 0.5 mg/kg-day with Rattus norvegicus (chronic); 17 mg/kg-day with Anas platyrhynchos (duration: 6 weeks); below 10.9 mg/kg-day in the data set with Anas platyrhynchos (duration: 20 weeks, body weight). In the data set with Rattus norvegicus (chronic, duration: 2 years, organ weight), this compound showed an LOAEL of 0.04 mg/kg-day. The NOAEL in the data set with Rattus norvegicus (reproduction developmental, organ weight) stood at 0.06 mg/kg-day.
